Values of other authors, collected in publication PMC9959244, “Revisiting the Solubility–Permeability Relationship with Hydrophobic Drug Umifenovir in Pluronic Solutions: Impact of pH and Co-Solvent” (Pharmaceutics, 2023).
Where two headings read alike, the source gives them in different places.

Tests used:
[1] = design: method as in doi:10.1016/S1773-2247(07)50022-5; conditions: cited from earlier work
[2] = design: method as in PMID 33926020; conditions: kneaded ternary complex with β-cyclodextrin and 1% poloxamer 188; cited from earlier work

In the case of `CCOC(=O)c1c(CSc2ccccc2)n(C)c2cc(Br)c(O)c(CN(C)C)c12.Cl` [arbidol hydrochloride], the “Increase of dissolution at 3 min vs pure compound” value ([1]; solid dispersion with PEG 4000) is listed as 14.0 fold, the “Percent concentration after 3 min of dissolution” value ([1]; solid dispersion with PEG 4000) is listed as 53.6% and the “Increase of dissolution at 3 min vs pure compound” value ([1]; solid dispersion with PEG 8000) is listed as 15.4 fold. For the same compound, the “Percent concentration after 3 min of dissolution” value ([1]; solid dispersion with PEG 8000) was 59.0% and the Solubility increase [2] was 13.1 fold.
